Data reported in patent publication US4284786A, “5-Methylisoxazole-4-carboxylic-(4-trifluoromethyl)-anilide” (priority 1978, dated 1981).
Where two headings read alike, the source gives them in different places.

Key:
rats = experiment: in vivo; conditions: oral toxicity, relative to compound B
Description: (§1) The acute toxicity were determined by standard methods on NMRI mice and on rats of the Wister and Sprague-Dawley strains. 6 animals were used per dose. The LD50 values were determined by the method of Litchfield and Wilcoxon.

in vivo [1] = conditions: rat, in vivo, po
Description: as §1

[2] = test system: allergic encephalomyelitis; experiment: Allergic encephalomyelitis (Levine); assay type: in vivo, male rats, Wistar-Lewis strain; conditions: for Allergic encephalomyelitis (3) % inhibition: days 1-12, index on 11th day
Description: Known non-steroid antiphlogistic agents are here at most very slightly active.
The investigations were carried out by the method of Levine (Arch.int.Pharmacodyn. 230, 309 (1977)). The experimental animals used were male rats of a Wistar-Lewis strain having a body weight of between 180 and 220 g. The encephalomyelitis was induced by injection of complete Freund adjuvant to which freshly withdrawn homogenized rat spinal marrow extract and Bordetella pertussis vaccine had been added. The compounds to be compared were administered orally once a day from the 1st to the 12th day. For each dose, and for the control group, a group of 10 animals was used. From the 7th day of the experiment, the paralysis symptoms were grouped together daily in one index with the mortality and the change of body weight. […]
loss of 20 g of body weight in each case: 1 point […]
hindquarters paralysis: 3 points paralysis of the entire body: 5 points
The assessment criterion was the percentage inhibition of the index compared to untreated control animals on the 11th day of the experiment. On conclusion of the experiment, blood was taken from the surviving animals to determine the erythrocyte count and leucocyte count as well as the hematocrit.

[3] = Sub-acute ulcerogenic action; assay type: in vivo, male Sprague-Dawley rats; conditions: rat, in vivo, po; sub-acute UD50 / ED50; read-out: Therapeutic index sub-acute UD50/ED50
Description: (§2) The investigations were carried out in groups of 10 male Sprague-Dawley rats having a body weight of 200-300 g. 48 hours before administration of the compounds to be compared, and up to the time of killing the animals, food was withheld, but there was free access to drinking water. The rats were killed 24 hours after oral administration, and the stomach was removed under running water and inspected for lesions of the mucous membrane. All macroscopically visible lesions were rated as ulcers. The proportion of animals with ulcers at each dose was determined, as was the UD50 using the method of Litchfield and Wilcoxon (J.Pharmacol.exp.Ther. 96, 99 (1949)).
(§3) The experimental animals and the experimental method were as under 4, with the following modification: the compounds to be compared were administered orally once daily for 4 days to normally fed rats and the animals were killed on the 5th day, after food had been withheld for 24 hours. According to Shriver, this method gives more informative results than a single administration, since medicamentous therapy of rheumatic patients also requires repeated treatment (Toxicology and Appl. Pharmacology 32, 73 (1975)).

stomach mucous membrane [4] = experiment: Sub-acute ulcerogenic action; assay type: in vivo, male Sprague-Dawley rats; conditions: sub-acute, relative to compound B
Description: as §2, §3

[5] = Acute toxicity, intraperitoneal administration to mice; parameters: species or system NMRI mice; conditions: mouse, in vivo, ip
Source text: (§4) 6 animals were used per dose.

in vivo [6] = experiment: in vivo; parameters: species or system male Sprague-Dawley rats; conditions: rat, in vivo; for selectivity ratio: acute UD50 / ED50, read-out: Therapeutic index acute UD50/ED50
Description: as §2, with “ulcers.” for “ulcers. The proportion of animals with ulcers at each dose was determined, as was the UD50 using the method of Litchfield and Wilcoxon (J.Pharmacol.exp.Ther. 96, 99 (1949)).”

adjuvant arthritis [7] = experiment: Adjuvant arthritis, Perper modification; assay type: in vivo, male rats, Wistar-Lewis strain; conditions: for ED50: Rattus norvegicus, 504 h, oral, days 1-12, paw volume on 21st day, read-out: Adjuvant arthritis Perper (2) ED50; for Adjuvant arthritis Perper (2) ED50: result in words
Description: (§5) The investigations were carried out by the method of Pearson (Arthrit.Rheum. 2, 440 (1959)). The experimental animals used were male rats of a Wistar-Lewis strain, having a body weight of between 130 and 200 g. The compounds to be compared were administered orally, daily from the 1st to the 17th day of the experiment. Animals of the control group were given the solvent only. For each dosage, and in the control group, a group of 8 animals was used. The criterion of the activity was the reduction in the paw volume increase compared to the untreated control group. The ED50 values were determined graphically from the dose/effect curve.
The experimental animals and experimental methods were as under 1., but the animals were only treated from the 1st to the 12th day of the experiment; after a treatment-free interval of 9 days, the paw volume was determined on the 21st day.

adjuvant arthritis [8] = experiment: Adjuvant arthritis, preventive experiment (Pearson); assay type: in vivo, male rats, Wistar-Lewis strain; conditions: for ED50: Rattus norvegicus, oral, daily days 1-17, reduction in paw volume increase
Description: as §5

stomach mucous membrane [9] = experiment: in vivo; parameters: species or system male Sprague-Dawley rats; conditions: single oral dose, fasted rats, 24 hours
Description: as §2, with “ulcers.” for “ulcers. The proportion of animals with ulcers at each dose was determined, as was the UD50 using the method of Litchfield and Wilcoxon (J.Pharmacol.exp.Ther. 96, 99 (1949)).”

[10] = Acute toxicity, oral administration, mice; conditions: mouse, in vivo; for selectivity ratio: oral LD50 in mice / ED50, read-out: Therapeutic index LD50/ED50
Source text: as §4

[11] = in the therapeutic dosage range

Row | SMILES | LD50 (in vivo [1]) | selectivity ratio (in vivo [1]) | Allergic encephalomyelitis (3) % inhibition ([2]; dose 10 mg/kg oral) | selectivity ratio [3] | LD50 [5] | TD50 at 24 h (in vivo [6]; po) | selectivity ratio (in vivo [6]; po) | ED50 (adjuvant arthritis [7]) | ED50 (adjuvant arthritis [8]) | selectivity ratio [10] | Adjuvant arthritis Perper (2) ED50 (adjuvant arthritis [7]; up to 20.0 (mg/kg)) | further results
1 | Cc1oncc1C(=O)Nc1ccc(C(F)(F)F)cc1 [compound A, 5-Methylisoxazole-4-carboxylic acid 4-trifluoromethyl-anilide] | 235 mg/kg | 100 | 100% | 33 | 150 to 300 mg/kg | 57 mg/kg | 25 | 4.5 mg/kg | 2.3 mg/kg | – | – | therapeutic range (LD50/ED50) times greater than that of compound B (rats): 2.4 times; inhibition of immunopathological processes, allergic encephalomyelitis test [2, 11]: inhibits immunopathological processes; 100% inhibition of the paralysis symptoms in allergic encephalomyelitis without gastro-intestinal bleeding ([2]; rat, in vivo): possible; therapeutic index (UD50/ED50; sub-acute) times greater than that of compound B (stomach mucous membrane [4]): 4.1 times; inhibition of immunopathological processes, Perper adjuvant arthritis test (adjuvant arthritis [7]; [11]): inhibits immunopathological processes; activity times greater than that of compound B (adjuvant arthritis [8]; ED50, adjuvant arthritis, preventive, relative to compound B): 6.5 times
2 | Cc1oncc1C(=O)Nc1ccc(F)cc1 [compound B, 5-methylisoxazole-4-carboxylic acid 4-fluoroanilide] | 620 mg/kg | 41 | – | 8 | 200 to 400 mg/kg | – | 17 | 25 mg/kg | 15 mg/kg | – | – | Allergic encephalomyelitis (3) % inhibition ([2]; dose 25 mg/kg oral): 43%; Allergic encephalomyelitis (3): finding printed in the % inhibition column ([2]; dose 50 mg/kg oral): anaemia; Ulcerogenic character acute UD50 (stomach mucous membrane [9]): 250 mg/kg
3 | Cc1oncc1C(=O)Nc1cccc(C(F)(F)F)c1 [compound C, 5-methylixoazole-4-carboxylic acid 3-trifluoromethylanilide] | – | – | 0% | – | 100 to 250 mg/kg | ~600 mg/kg | < 12 | – | > 50 mg/kg | < 15 | inactive | LD50 ([10]; po): 740 mg/kg
4 | Cc1oncc1C(=O)Nc1cc(C(F)(F)F)cc(C(F)(F)F)c1 [compound D, 5-methylisoxazole-4-carboxylic acid 3,5-bis-trifluoromethylanilide] | – | – | – | – | > 500 mg/kg | – | ~2 | > 50 mg/kg | ~50 mg/kg | 50 | – | TD50 at 24 h (in vivo [6]; single oral dose, fasted rats, 24 hours, read-out: Ulcerogenic character acute UD50): 100 mg/kg
5 | Cc1oncc1C(=O)Nc1ccccc1C(F)(F)F [compound E, 5-methylisoxazole-4-carboxylic acid 2-trifluoromethylanilide] | – | – | 0% | – | 300 to 6000 mg/kg | 350 mg/kg | < 7 | – | > 50 mg/kg | – | inactive | –
6 | CCCCC1C(=O)N(c2ccccc2)N(c2ccccc2)C1=O [compound F, phenylbutazone] | – | – | – | – | – | – | – | – | 37 mg/kg | – | – | Allergic encephalomyelitis (3) % inhibition ([2]; dose 75 mg/kg oral): 0%; Adjuvant arthritis Perper (2) ED50 (adjuvant arthritis [7]; up to 75 (mg/kg)): inactive
